pIC50: −log10 of the molar value. Starred links: 1 amine or outer side, 2 acyl side, 3 side chain; linkers in the order of their positions; H or OH if unused. Non-standard residues stand in square brackets, D forms with d. Residues, ends and D or L forms follow the SMILES beside them. Phe(4-(cis-4-COOH-cHex)) = N[C@@H](Cc1ccc([C@H]2CC[C@@H](C(=O)O)CC2)cc1)C(=O)O; dPro(4R-(4-pyridylmethyl)) = O=C(O)[C@H]1C[C@@H](Cc2ccncc2)CN1; Trp(βS-Me,4-F) = C[C@@H](c1c[nH]c2cccc(F)c12)[C@H](N)C(=O)O; Bip(4'-COOH) = N[C@@H](Cc1ccc(-c2ccc(C(=O)O)cc2)cc1)C(=O)O; Ala(1-bicyclo(1.1.1)pentyl) = N[C@@H](CC12CC(C1)C2)C(=O)O; X11 = O=C([C@H]1C[C@@H](Cc2ccc(F)c3ccccc23)CN1[*:1])[*:2]; dPro(4R-Bzl(4-F)) = O=C(O)[C@H]1C[C@@H](Cc2ccc(F)cc2)CN1; dPro(3S-(4-F-Bn)) = O=C(O)[C@@H]1NCC[C@@H]1Cc1ccc(F)cc1; X20 = O=C([C@H]1C[C@@H](Cc2ccc(Cl)cc2)CN1[*:1])[*:2]; X29 = O=C([C@H]1[C@@H](Cc2ccc(Cl)cc2)CCN1[*:1])[*:2]; X4 = O=C([C@H]1[C@@H](Cc2ccncc2)CCN1[*:1])[*:2]; Ala(pyrimidin-5-yl) = N[C@@H](Cc1cncnc1)C(=O)O; Phe(4-COOH) = N[C@@H](Cc1ccc(C(=O)O)cc1)C(=O)O; Ala(4-Pyridazinyl) = N[C@@H](Cc1ccnnc1)C(=O)O; Bip = N[C@@H](Cc1ccc(-c2ccccc2)cc1)C(=O)O; Pro(cis-4-F) = O=C(O)[C@@H]1C[C@H](F)CN1; X6 = O=C([C@H](Cc1ccncn1)N[*:1])[*:2]; cisHyp = O=C(O)[C@@H]1C[C@H](O)CN1; d(αMeD) = C[C@@](N)(CC(=O)O)C(=O)O; 3Pal = N[C@@H](Cc1cccnc1)C(=O)O; 4Pal = N[C@@H](Cc1ccncc1)C(=O)O; aThr = C[C@H](O)[C@H](N)C(=O)O; Dab = NCC[C@H](N)C(=O)O; Aib = CC(C)(N)C(=O)O
Target: T1, IL-1β (Homo sapiens, UniProt P01584)
T1 construct: purchased BioLegend 579404
Assay: IL-6 assay in MRC5 cells: inhibition of IL-1β induced IL-6 secretion (AlphaLISA)
Type: cell-based
Conditions: inhibition of IL-1β induced IL-6 secretion in MRC5 cells; read-out: MRC5 IC50
How it was run: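 Compound was pre-incubated 1 h at ambient temperature with recombinant human IL-1β at 2λ EC80 before adding human lung fibroblast MRC5 cells (3000/well) in EMEM with 0.025% BSA. After overnight culture at 37 °C, 5% CO2, secreted IL-6 in conditioned medium was measured by AlphaLISA; IC50 from 4-parameter logistic fits.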

T1 sequence (P01584 117-269): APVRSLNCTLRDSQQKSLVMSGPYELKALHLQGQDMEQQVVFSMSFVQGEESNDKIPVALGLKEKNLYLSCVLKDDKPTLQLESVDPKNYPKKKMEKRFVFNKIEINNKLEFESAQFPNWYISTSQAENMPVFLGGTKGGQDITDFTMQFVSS

Row | SMILES | pIC50
1 | C[C@@H](c1c[nH]c2cccc(F)c12)[C@@H]1NC(=O)[C@@H]2C[C@H](F)CN2C(=O)CNC(=O)[C@H](Cc2ccc(C(=O)O)cc2)NC(=O)[C@H](Cc2ccncc2)NC(=O)[C@H](Cc2ccc(-c3ccc(C(=O)O)cc3)cc2)NC(=O)[C@H]2C[C@@H](Cc3ccc(F)cc3)CN2C(=O)CNC(=O)[C@H](CCN)NC(=O)[C@H](CCC(N)=O)NC(=O)[C@H](Cc2ccnnc2)NC(=O)[C@@](C)(CC(=O)O)NC(=O)[C@H](Cc2c[nH]c3ccccc23)NC(=O)[C@H](CO)NC(=O)C(C)(C)NC1=O [Example 322] (cyclo([Bip(4'-COOH)][4Pal][Phe(4-COOH)]G[Pro(cis-4-F)][Trp(βS-Me,4-F)][Aib]SW[d(αMeD)][Ala(4-Pyridazinyl)]Q[Dab]G[dPro(4R-Bzl(4-F))])) | 10.89
2 | C[C@@H](c1c[nH]c2cccc(F)c12)[C@@H]1NC(=O)[C@@H]2C[C@H](F)CN2C(=O)CNC(=O)[C@H](Cc2ccc(C(=O)O)cc2)NC(=O)[C@H](Cc2ccncc2)NC(=O)[C@H](Cc2ccc(-c3ccc(C(=O)O)cc3)cc2)NC(=O)[C@H]2C[C@@H](Cc3ccc(F)cc3)CN2C(=O)CNC(=O)[C@H](CCN)NC(=O)[C@H](CCC(N)=O)NC(=O)[C@H](Cc2cccnc2)NC(=O)[C@@](C)(CC(=O)O)NC(=O)[C@H](Cc2c[nH]c3ccccc23)NC(=O)[C@H](CO)NC(=O)C(C)(C)NC1=O [Example 323] (cyclo([Bip(4'-COOH)][4Pal][Phe(4-COOH)]G[Pro(cis-4-F)][Trp(βS-Me,4-F)][Aib]SW[d(αMeD)][3Pal]Q[Dab]G[dPro(4R-Bzl(4-F))])) | 10.92
3 | C[C@@H](c1c[nH]c2cccc(F)c12)[C@@H]1NC(=O)[C@@H]2C[C@H](F)CN2C(=O)CNC(=O)[C@H](Cc2ccc(C(=O)O)cc2)NC(=O)[C@H](Cc2ccncc2)NC(=O)[C@H](Cc2ccc(-c3ccc(C(=O)O)cc3)cc2)NC(=O)[C@H]2C[C@@H](Cc3ccc(F)cc3)CN2C(=O)CNC(=O)[C@H](CCN)NC(=O)[C@H](CCC(N)=O)NC(=O)[C@H](Cc2ccncc2)NC(=O)[C@@](C)(CC(=O)O)NC(=O)[C@H](Cc2c[nH]c3ccccc23)NC(=O)[C@H](CO)NC(=O)C(C)(C)NC1=O [Example 324] (cyclo([Bip(4'-COOH)][4Pal][Phe(4-COOH)]G[Pro(cis-4-F)][Trp(βS-Me,4-F)][Aib]SW[d(αMeD)][4Pal]Q[Dab]G[dPro(4R-Bzl(4-F))])) | 10.89
4 | C[C@@H](c1c[nH]c2cccc(F)c12)[C@@H]1NC(=O)[C@@H]2C[C@H](O)CN2C(=O)CNC(=O)[C@H](Cc2ccc(C(=O)O)cc2)NC(=O)[C@H](Cc2ccncc2)NC(=O)[C@H](Cc2ccc(-c3ccc(C(=O)O)cc3)cc2)NC(=O)[C@H]2[C@@H](Cc3ccncc3)CCN2C(=O)CNC(=O)[C@H](CCN)NC(=O)[C@H](CCC(N)=O)NC(=O)[C@H](Cc2cncnc2)NC(=O)C(C)(C)NC(=O)[C@H](Cc2c[nH]c3ccccc23)NC(=O)[C@H](CO)NC(=O)C(C)(C)NC1=O [Example 325] (cyclo([Bip(4'-COOH)][4Pal][Phe(4-COOH)]G[cisHyp][Trp(βS-Me,4-F)][Aib]SW[Aib][Ala(pyrimidin-5-yl)]Q[Dab]G[X4])) | 10.57
5 | C[C@@H](c1c[nH]c2cccc(F)c12)[C@@H]1NC(=O)[C@@H]2C[C@H](F)CN2C(=O)CNC(=O)[C@H](Cc2ccc(C(=O)O)cc2)NC(=O)[C@H](Cc2ccncc2)NC(=O)[C@H](Cc2ccc(-c3ccc(C(=O)O)cc3)cc2)NC(=O)[C@H]2[C@@H](Cc3ccncc3)CCN2C(=O)CNC(=O)[C@H](CCN)NC(=O)[C@H](CCC(N)=O)NC(=O)[C@H](Cc2cncnc2)NC(=O)C(C)(C)NC(=O)[C@H](Cc2c[nH]c3ccccc23)NC(=O)[C@H](CO)NC(=O)C(C)(C)NC1=O [Example 326] (cyclo([Bip(4'-COOH)][4Pal][Phe(4-COOH)]G[Pro(cis-4-F)][Trp(βS-Me,4-F)][Aib]SW[Aib][Ala(pyrimidin-5-yl)]Q[Dab]G[X4])) | 10.96
6 | C[C@@H](c1c[nH]c2cccc(F)c12)[C@@H]1NC(=O)[C@@H]2C[C@H](F)CN2C(=O)CNC(=O)[C@H](Cc2ccc(C(=O)O)cc2)NC(=O)[C@H](Cc2ccncc2)NC(=O)[C@H](Cc2ccc(-c3ccc(C(=O)O)cc3)cc2)NC(=O)[C@H]2C[C@@H](Cc3ccc(F)c4ccccc34)CN2C(=O)CNC(=O)[C@H](CCN)NC(=O)[C@H](CCC(N)=O)NC(=O)[C@H](Cc2cncnc2)NC(=O)[C@@](C)(CC(=O)O)NC(=O)[C@H](Cc2c[nH]c3ccccc23)NC(=O)[C@H](CO)NC(=O)C(C)(C)NC1=O [Example 327] (cyclo([Bip(4'-COOH)][4Pal][Phe(4-COOH)]G[Pro(cis-4-F)][Trp(βS-Me,4-F)][Aib]SW[d(αMeD)][Ala(pyrimidin-5-yl)]Q[Dab]G[X11])) | 10.80
7 | C[C@@H](c1c[nH]c2cccc(F)c12)[C@@H]1NC(=O)[C@@H]2C[C@H](F)CN2C(=O)CNC(=O)[C@H](Cc2ccc(C(=O)O)cc2)NC(=O)[C@H](Cc2ccncc2)NC(=O)[C@H](Cc2ccc(-c3ccc(C(=O)O)cc3)cc2)NC(=O)[C@H]2[C@@H](Cc3ccncc3)CCN2C(=O)CNC(=O)[C@H](CCN)NC(=O)[C@H](CCC(N)=O)NC(=O)[C@H](Cc2cncnc2)NC(=O)[C@@](C)(CC(=O)O)NC(=O)[C@H](Cc2c[nH]c3ccccc23)NC(=O)[C@H](CO)NC(=O)C(C)(C)NC1=O [Example 328] (cyclo([Bip(4'-COOH)][4Pal][Phe(4-COOH)]G[Pro(cis-4-F)][Trp(βS-Me,4-F)][Aib]SW[d(αMeD)][Ala(pyrimidin-5-yl)]Q[Dab]G[X4])) | 11.10
8 | C[C@@H](c1c[nH]c2cccc(F)c12)[C@@H]1NC(=O)[C@@H]2C[C@H](F)CN2C(=O)CNC(=O)[C@H](Cc2ccc(C(=O)O)cc2)NC(=O)[C@H](Cc2ccncc2)NC(=O)[C@H](Cc2ccc(-c3ccc(C(=O)O)cc3)cc2)NC(=O)[C@H]2C[C@@H](Cc3ccc(Cl)cc3)CN2C(=O)CNC(=O)[C@H](CCN)NC(=O)[C@H](CCC(N)=O)NC(=O)[C@H](Cc2cncnc2)NC(=O)[C@@](C)(CC(=O)O)NC(=O)[C@H](Cc2c[nH]c3ccccc23)NC(=O)[C@H](CO)NC(=O)C(C)(C)NC1=O [Example 329] (cyclo([Bip(4'-COOH)][4Pal][Phe(4-COOH)]G[Pro(cis-4-F)][Trp(βS-Me,4-F)][Aib]SW[d(αMeD)][Ala(pyrimidin-5-yl)]Q[Dab]G[X20])) | 11.05
9 | C[C@@H](c1c[nH]c2cccc(F)c12)[C@@H]1NC(=O)[C@@H]2C[C@H](F)CN2C(=O)CNC(=O)[C@H](Cc2ccc(C(=O)O)cc2)NC(=O)[C@H](Cc2ccncc2)NC(=O)[C@H](Cc2ccc(-c3ccc(C(=O)O)cc3)cc2)NC(=O)[C@H]2[C@@H](Cc3ccc(Cl)cc3)CCN2C(=O)CNC(=O)[C@H](CCN)NC(=O)[C@H](CCC(N)=O)NC(=O)[C@H](Cc2cncnc2)NC(=O)[C@@](C)(CC(=O)O)NC(=O)[C@H](Cc2c[nH]c3ccccc23)NC(=O)[C@H](CO)NC(=O)C(C)(C)NC1=O [Example 330] (cyclo([Bip(4'-COOH)][4Pal][Phe(4-COOH)]G[Pro(cis-4-F)][Trp(βS-Me,4-F)][Aib]SW[d(αMeD)][Ala(pyrimidin-5-yl)]Q[Dab]G[X29])) | 11.10
10 | C[C@@H](c1c[nH]c2cccc(F)c12)[C@@H]1NC(=O)[C@@H]2C[C@H](F)CN2C(=O)CNC(=O)[C@H](Cc2ccc(C(=O)O)cc2)NC(=O)[C@H](Cc2ccncc2)NC(=O)[C@H](Cc2ccc(-c3ccc(C(=O)O)cc3)cc2)NC(=O)[C@H]2[C@@H](Cc3ccc(F)cc3)CCN2C(=O)CNC(=O)[C@H](CCN)NC(=O)[C@H](CCC(N)=O)NC(=O)[C@H](Cc2cncnc2)NC(=O)[C@@](C)(CC(=O)O)NC(=O)[C@H](Cc2c[nH]c3ccccc23)NC(=O)[C@H](CO)NC(=O)C(C)(C)NC1=O [Example 331] (cyclo([Bip(4'-COOH)][4Pal][Phe(4-COOH)]G[Pro(cis-4-F)][Trp(βS-Me,4-F)][Aib]SW[d(αMeD)][Ala(pyrimidin-5-yl)]Q[Dab]G[dPro(3S-(4-F-Bn))])) | 10.96
11 | C[C@@H](c1c[nH]c2cccc(F)c12)[C@@H]1NC(=O)[C@@H]2C[C@H](F)CN2C(=O)CNC(=O)[C@H](Cc2ccc(C(=O)O)cc2)NC(=O)[C@H](Cc2ccncc2)NC(=O)[C@H](Cc2ccc(-c3ccc(C(=O)O)cc3)cc2)NC(=O)[C@H]2C[C@@H](Cc3ccc(F)cc3)CN2C(=O)CNC(=O)[C@H](CCN)NC(=O)[C@H](CCC(N)=O)NC(=O)[C@H](Cc2ccncn2)NC(=O)[C@@](C)(CC(=O)O)NC(=O)[C@H](Cc2c[nH]c3ccccc23)NC(=O)[C@H](CO)NC(=O)C(C)(C)NC1=O [Example 332] (cyclo([Bip(4'-COOH)][4Pal][Phe(4-COOH)]G[Pro(cis-4-F)][Trp(βS-Me,4-F)][Aib]SW[d(αMeD)][X6]Q[Dab]G[dPro(4R-Bzl(4-F))])) | 10.89
12 | C[C@@H](c1c[nH]c2cccc(F)c12)[C@@H]1NC(=O)[C@@H]2C[C@H](F)CN2C(=O)CNC(=O)[C@H](Cc2ccc(C(=O)O)cc2)NC(=O)[C@H](Cc2ccncc2)NC(=O)[C@H](Cc2ccc(-c3ccccc3)cc2)NC(=O)[C@H]2C[C@@H](Cc3ccncc3)CN2C(=O)CNC(=O)[C@H](CCN)NC(=O)[C@H](CCC(N)=O)NC(=O)[C@H](Cc2cncnc2)NC(=O)[C@@](C)(CC(=O)O)NC(=O)[C@H](Cc2c[nH]c3ccccc23)NC(=O)[C@H](CO)NC(=O)C(C)(C)NC1=O [Example 333] (cyclo([Bip][4Pal][Phe(4-COOH)]G[Pro(cis-4-F)][Trp(βS-Me,4-F)][Aib]SW[d(αMeD)][Ala(pyrimidin-5-yl)]Q[Dab]G[dPro(4R-(4-pyridylmethyl))])) | 10.66
13 | C[C@H](O)[C@@H]1NC(=O)[C@@](C)(CC(=O)O)NC(=O)[C@H](Cc2c[nH]c3ccccc23)NC(=O)[C@H](CO)NC(=O)C(C)(C)NC(=O)[C@H]([C@@H](C)c2c[nH]c3cccc(F)c23)NC(=O)[C@@H]2C[C@H](F)CN2C(=O)CNC(=O)[C@H](Cc2ccc(C(=O)O)cc2)NC(=O)[C@H](CC23CC(C2)C3)NC(=O)[C@H](Cc2ccc([C@H]3CC[C@@H](C(=O)O)CC3)cc2)NC(=O)[C@H]2C[C@@H](Cc3ccncc3)CN2C(=O)CNC(=O)[C@H](CCN)NC(=O)[C@H](CCC(N)=O)NC1=O [Example 334] (cyclo([Phe(4-(cis-4-COOH-cHex))][Ala(1-bicyclo(1.1.1)pentyl)][Phe(4-COOH)]G[Pro(cis-4-F)][Trp(βS-Me,4-F)][Aib]SW[d(αMeD)][aThr]Q[Dab]G[dPro(4R-(4-pyridylmethyl))])) | 10.66

Source: US20260242419A1, “A CYCLIC PEPTIDE FOR TRAPPING INTERLEUKIN-1 BETA” (Merck Sharp & Dohme LLC, priority 2023, published 2026)
